Results on five compounds are retold here after US8394398B2 (Abbott Laboratories, priority 1997, dated 2013).

Data set [1] can be described thus: pharmacokinetics after a single intravenous dose in cynomolgus monkey. Conditions: single 2.5 mg/kg intravenous dose, blood, n=3. The data set is classed as in vivo.
The test system of data set [2] is human coronary artery smooth muscle cells (hCaSMC). Nature of the data set: 3H-thymidine uptake proliferation assay, hCaSMC. The data set is classed as cell-based. The note with it: for effect on the antiproliferative activity of zotarolimus in hCaSMC: FIG. 12. Here is the method: Experiments were performed to investigate interactions between zotarolimus and the corticosteroid dexamethasone. The effect of dexamethasone on the antiproliferative activity of zotarolimus in human coronary artery smooth muscle ([…]) and endothelial […] determined using an in vitro proliferation assay. The proliferation and migration of vascular smooth muscle cells into the vascular neointima is a characteristic pathologic response seen in restenotic lesions (A. Lafont and P. Libby, The smooth muscle cell: sinner or saint in restenosis and the acute coronary syndromes? […] As a result, in vitro assays which specifically measure the antiproliferative activity of candidate anti-restenotic compounds on human coronary artery smooth muscle and endothelial cells should predict potential anti-restenotic activity in vivo. The tritium incorporation assay is an accurate and sensitive method used in the art to determine cell number and proliferation. Compounds or combinations of compounds which attenuate growth factor-mediated human coronary artery smooth muscle cell […]) proliferation, as measured by the tritium incorporation assay in vitro, are candidate anti-restenotic agents. […] Cell proliferation was monitored by following incorporation of ^3H-thymidine into newly synthesized DNA of cells stimulated by serum and growth factors. Exponentially growing […] were seeded into 96-well flat bottom tissue culture plates at 5,000 cells/well (10,000 cells/well for […]). The cells were allowed to attach overnight. The growth medium was removed the following day and cells were washed twice with unsupplemented (basal) medium to remove traces of serum and growth factors. Basal medium (200 μl) was added to each well and the cells incubated in medium lacking growth factors and serum to starve and synchronize them in the G0 state. After starvation (48 hours for […] and 39 hours for […]) in medium lacking serum and growth factors, the cells were replenished with 200 μl supplemented medium in the absence or presence of drugs at the desired concentrations. […] After a 72-hour incubation period, 25 μl (1 μCi/well) of ^3H-thymidine (Amersham Biosciences) were added to each well. The cells were incubated at 37° C. for 16-18 hours to allow incorporation of ^3H-thymidine into newly synthesized DNA and the cells harvested onto 96-well plates containing bonded glass fiber filters using a cell harvester (Harvester 9600, TOMTEC). […] Controls included medium only, starved cells and cells in complete medium. Drug activity was established by determining the inhibition of ^3H-thymidine incorporation into newly synthesized DNA relative to cells grown in complete medium. […] The final IC50s are means of the 3-4 experiments. In these experiments, the x-axis represents the concentration of the drug being varied. For most of these curves that is zotarolimus alone and in combination with a fixed concentration of dexamethasone. Each graph contains a dexamethasone alone curve and a zotarolimus alone curve. The set of curves in each graph is generated by adding dexamethasone at a fixed concentration (1, 5, 10 or 25 nM) to various concentrations of zotarolimus (0, 0.04, 0.08, 0.8, 4, 8, 40 nM). Each curve represents the dose-response of zotarolimus (whose concentration is given on the x-axis) in the presence of the fixed concentration of dexamethasone given in the legend). […] The concentration eliciting a specific antiproliferative effect was determined using a 4-parameter equation (Equation 1). […]

In a further data set the test system is human monocytes. Nature of the data set: cytokine production by LPS-stimulated human monocytes (ELISA). It counts as cell-based. The note with it: for MCP-1 production by human monocytes in vitro: FIG. 10; for production of TNFα and IL-6 by human monocytes: FIGS. 10 and 11; for Maximal Inhibitory Activity, IL-6 / Maximal Inhibitory Activity, MCP-1 / Maximal Inhibitory Activity, TNF: Monocytes, 24 hours. How it is done: (§1) Experiments were performed to determine the effects of zotarolimus, sirolimus and dexamethasone on the production of TNFα, IL-6 and MCP-1 by activated human monocytes In addition to monocytes and macrophages two other key cell types are involved in the etiology of restenosis, arterial smooth muscle and endothelial cells. These cells are activated and produce cytokines in response to TNFα. […] The activation of cytokine production by human coronary artery smooth muscle and endothelial cells following TNFα treatment was determined by measuring interleukine-8 (IL-8), MCP-1 and IL-6 production. As shown by the results of the experiments described below, the ability of these compounds to inhibit the production of cytokines supports their use in combination as anti-restenotic agents since these cytokines play a role in the development of restenosis. […] After 24 hours, the supernatants were carefully collected and TNFα, IL-6 and MCP-1 levels determined by ELISA. Primary cultures of human coronary artery endothelial and smooth muscle cells were obtained from Cambrex and maintained as described by the vendor. […] After 24 hours the supernatants were removed and replaced with media containing TNFα (5 ng/ml) in the presence and absence of various concentrations of zotarolimus, dexamethasone or sirolimus. The cells were incubated for 24 hours and the supernatants carefully removed and frozen until measurement. Cytokine levels were measured in the supernatants by sandwich ELISA.
On the technique in general: An ELISA detects its analyte on a solid surface through an enzyme-linked reagent.

The nature of data set [3]: accelerated in vitro elution from PC-1036 coated stents. It counts as physicochemical.
For data set [4], the system named is human coronary artery endothelial cells (hCaEC). Description: cytokine production by TNFα-treated human coronary artery endothelial cells (ELISA). It counts as cell-based. Conditions: TNFα (5 ng/ml), 24 hours. Here is the method: as §1
The test system is the same in data set [5]. Description: 3H-thymidine uptake proliferation assay, hCaEC. It counts as cell-based.
The test system of data set [6] is human coronary artery smooth muscle cells (hCaSMC). Description: cytokine production by TNFα-treated human coronary artery smooth muscle cells (ELISA). The data set is classed as cell-based. Conditions: TNFα (5 ng/ml), 24 hours; for Maximal Inhibitory Activity, IL-6 / Maximal Inhibitory Activity, Il-8 / Maximal Inhibitory Activity, MCP-1: hCaSMC. Here is the method:
as §1

The AUC is concentration integrated over time. One may read the IC50 as the concentration at which inhibition is half-maximal.

“40-epi-N-[2′-pyridone]-rapamycin [Example 2-pyridone]” had an AUC in data set [1] of 2.55 ng·h/mL.

Consider `C[C@@H]1C[C@H]2[C@@H]3CCC4=CC(=O)C=C[C@]4(C)[C@@]3(F)[C@@H](O)C[C@]2(C)[C@@]1(O)C(=O)CO` [Dexamethasone], for which, in data set [2] (Homo sapiens, 3 h, read-out: hCaSMC IC50 Mean ± SEM), the IC50 turned out to be 9.3 nM. Also, the “inhibition of hCaSMC proliferation” value in data set [2] (dexamethasone alone at or above 10 nM) is recorded as “N.D.* Not detectable: Concentrations of dexamethasone alone at or above 10 nM inhibit proliferation by greater than 50% preventing calculation of zotarolimus IC50's in these experiments”. In the data set on human monocytes, the “MCP-1 production by human monocytes in vitro” value is on record as “dose-dependently inhibit MCP-1 production”; the “production of TNFα and IL-6 by human monocytes” value is “potently blocks the production of TNFα and IL-6”; the “Maximal Inhibitory Activity, IL-6” value was “+++ (+++ indicates maximal inhibitory activity of 75-100% of control)”; the “Maximal Inhibitory Activity, MCP-1” value is reported as “+ (+ indicates maximal inhibitory activity of 50-75% of control)”. In the data set on human monocytes, the “Maximal Inhibitory Activity, TNF” value was “+++ (+++ indicates maximal inhibitory activity of 75-100% of control)”. In addition, the “burst release at the beginning of elution” value in data set [3] (stent with 10 μg/mm each drug, 5 μg/mm PC-1036 topcoat, 10 mM acetate buffer pH 4.0, 1% Solutol HS 15, 37° C., 24-hour profile) is recorded as “slightly larger burst release at the beginning than zotarolimus”. The “effect on the elution profile of zotarolimus” value in data set [3] (zotarolimus alone vs in the presence of dexamethasone, same conditions) was “little effect on the elution profile of zotarolimus”. In data set [4], the “Maximal Inhibitory Activity, IL-6” value is “− (− indicates maximal inhibitory activity less than 50% of control)”; the “Maximal Inhibitory Activity, Il-8” value is reported as “− (− indicates maximal inhibitory activity less than 50% of control)”; the “Maximal Inhibitory Activity, MCP-1” value is given as “− (− indicates maximal inhibitory activity less than 50% of control)”. Also, in data set [5] (FIG. 13), the “effect on proliferation of hCaEC” value was “does not affect the proliferation of hCaEC”. Moreover, the IC50 in data set [5] (Homo sapiens, Endothelial cell, 3 h, read-out: hCaEC IC50 Mean ± SEM) is greater than 10000 nM. In data set [6], the “block of hCaSMC IL-6 production” value is 65.7%; the “block of hCaSMC IL-8 production” value is listed as 68.4%; the “block of hCaSMC MCP-1 production” value was determined as 57.2%; the “Maximal Inhibitory Activity, IL-6” value is “+ (+ indicates maximal inhibitory activity of 50-75% of control)”. Moreover, in data set [6], the “Maximal Inhibitory Activity, Il-8” value is given as “+ (+ indicates maximal inhibitory activity of 50-75% of control)” and the “Maximal Inhibitory Activity, MCP-1” value was “+ (+ indicates maximal inhibitory activity of 50-75% of control)”.

On to `COC1CC2CCC(C)C(O)(O2)C(=O)C(=O)N2CCCCC2C(=O)OC(C(C)CC2CCC(n3ccc(=O)cc3)C(OC)C2)CC(=O)C(C)C=C(C)C(O)C(OC)C(=O)C(C)CC(C)C=CC=CC=C1C` (stereo not drawn) [Example 4-pyridone, 40-epi-N-[4′-pyridone]-rapamycin], for which, in data set [1], the exposure (AUC) is 5.59 ng·h/mL.

Regarding `CO[C@H]1C[C@@H]2CC[C@@H](C)[C@@](O)(O2)C(=O)C(=O)N2CCCC[C@H]2C(=O)O[C@H]([C@H](C)C[C@@H]2CC[C@@H](O)[C@H](OC)C2)CC(=O)[C@H](C)/C=C(\C)[C@@H](O)[C@@H](OC)C(=O)[C@H](C)C[C@H](C)/C=C/C=C/C=C/1C` [Rapamycin], in the data set with human monocytes, the “MCP-1 production by human monocytes in vitro” value is “dose-dependently inhibit MCP-1 production”; the “production of TNFα and IL-6 by human monocytes” value is “not demonstrated”; the “Maximal Inhibitory Activity, IL-6” value was “− (− indicates maximal inhibitory activity less than 50% of control)”; the “Maximal Inhibitory Activity, MCP-1” value is given as “+++ (+++ indicates maximal inhibitory activity of 75-100% of control)”. The “Maximal Inhibitory Activity, TNF” value with human monocytes is recorded as “− (− indicates maximal inhibitory activity less than 50% of control)”. Further, in data set [4], the “Maximal Inhibitory Activity, IL-6” value is listed as “− (− indicates maximal inhibitory activity less than 50% of control)”; the “Maximal Inhibitory Activity, Il-8” value is given as “− (− indicates maximal inhibitory activity less than 50% of control)”; the “Maximal Inhibitory Activity, MCP-1” value was “− (− indicates maximal inhibitory activity less than 50% of control)”. Also, in data set [6], the “Maximal Inhibitory Activity, IL-6” value is reported as “− (− indicates maximal inhibitory activity less than 50% of control)”; the “Maximal Inhibitory Activity, Il-8” value is listed as “− (− indicates maximal inhibitory activity less than 50% of control)”; the “Maximal Inhibitory Activity, MCP-1” value is “− (− indicates maximal inhibitory activity less than 50% of control)”.

In the case of `C=CC[C@@H]1/C=C(\C)C[C@H](C)C[C@H](OC)[C@H]2O[C@@](O)(C(=O)C(=O)N3CCCC[C@H]3C(=O)O[C@H](/C(C)=C/[C@@H]3CC[C@@H](O)[C@H](OC)C3)[C@H](C)[C@@H](O)CC1=O)[C@H](C)C[C@@H]2OC` [tacrolimus], the “effect on the antiproliferative activity of zotarolimus in hCaSMC” value is given as “increased the IC50 of zotarolimus” in data set [2] (tacrolimus 100 nM) and “completely blocked the activity of zotarolimus” in data set [2] (tacrolimus 250 nM or greater, zotarolimus 4 nM).
